Assay results taken from ChEMBL document CHEMBL1130888, “Synthesis and anti-HIV activities of symmetrical N1,N3-dibenzyl-2-hydroxy-propane derivatives” (Bioorg Med Chem Lett, 1998).
pIC50: −log10 of the molar value.

Columns and labels:
[1] = Partition coefficient (logP); format: physicochemical; settings: octanol/water
[2] = system: MT4; test: Cytotoxicity was evaluated against uninfected MT-4 cells; format: functional; settings: Homo sapiens
[3] = system: MT4; test: Inhibitory activity against syncytia formation in HIV-infected MT-4 cells was evaluated; format: functional, cell-based; settings: Homo sapiens
[4] = system: MT4; test: Inhibitory activity against syncytia formation in HIV-infected MT-4 cells was evaluated; Inactive; format: functional, cell-based, Homo sapiens
[5] = system: MT4; test: Inhibitory activity against syncytia formation in HIV-infected MT-4 cells was evaluated; 1-10 uM; format: functional, cell-based; settings: Homo sapiens

| logP ([1]; read-out: logP) | logP [1] | Structure (SMILES) | CC50 [2] | pIC50 [3] | IC50 [4] | pIC50 [5] |
| --- | --- | --- | --- | --- | --- | --- |
| – | 10.35 | CCCCCCCCOC(=O)N(Cc1ccccc1)CC(O)CN(Cc1ccccc1)C(=O)OCCCCCCCC | 50 µM | 5.00 | – | – |
| 3.99 | – | CCOC(=O)N(Cc1ccccc1)CC(O)CN(Cc1ccccc1)C(=O)OCC | 50 µM | – | Not Active | – |
| 5.75 | – | CC(C)COC(=O)N(Cc1ccccc1)CC(O)CN(Cc1ccccc1)C(=O)OCC(C)C | 100 µM | 6.00 | – | – |
| 5.39 | – | CC(C)(C)OC(=O)N(Cc1ccccc1)CC(O)CN(Cc1ccccc1)C(=O)OC(C)(C)C | > 100 µM | – | – | 6.00 |
| 4.07 | – | O=C(OCC1CCCCO1)N(Cc1ccccc1)CC(O)CN(Cc1ccccc1)C(=O)OCC1CCCCO1 (stereo unspecified) | 50 µM | – | Not Active | – |
| 2.94 | – | O=C(OCC1CCCO1)N(Cc1ccccc1)CC(O)CN(Cc1ccccc1)C(=O)OCC1CCCO1 (stereo unspecified) | 50 µM | – | Not Active | – |

Continued, compound first:

| Structure (SMILES) | logP ([1]; read-out: logP) | logP [1] | CC50 [2] | pIC50 [3] | IC50 [4] | pIC50 [5] |
| --- | --- | --- | --- | --- | --- | --- |
| O=C(NCc1ccccc1)N(Cc1ccccc1)CC(O)CN(Cc1ccccc1)C(=O)NCc1ccccc1 | 5.12 | – | > 100 µM | 7.00 | – | – |
| CC(C)(C)NC(=O)N(Cc1ccccc1)CC(O)CN(Cc1ccccc1)C(=O)NC(C)(C)C | 4.12 | – | > 100 µM | 6.00 | – | – |
| O=C(OCc1ccccc1)N(Cc1ccccc1)CC(O)CN(Cc1ccccc1)C(=O)OCc1ccccc1 | 6.48 | – | 10 µM | > 7.00 | – | – |
| O=C(N1CCOCC1)N(Cc1ccccc1)CC(O)CN(Cc1ccccc1)C(=O)N1CCOCC1 | 0.04 | – | 100 µM | – | Not Active | – |
| CN(C(=O)N(Cc1ccccc1)CC(O)CN(Cc1ccccc1)C(=O)N(C)c1ccccc1)c1ccccc1 | 7.06 | – | > 100 µM | 6.00 | – | – |
| O=C(OC1CCOC1)N(Cc1ccccc1)CC(O)CN(Cc1ccccc1)C(=O)OC1CCOC1 (stereo unspecified) | 2.48 | – | 50 µM | – | Not Active | – |
